Data: US12741974B2, “Compounds constituting C20-modified salinomycin derivatives, a method for obtaining the same, a composition containing the same, a use of said compounds and a method for obtaining an intermediate product” (FILECLO SP. Z O.O., priority 2020, dated 2021)

What was measured:
Format in all cases: cell-based
B16-F0 (murine melanoma) = test: In vitro cytotoxicity test, SRB assay, 72 h incubation with compound; settings: for IC50: B16-F0 murine melanoma, SRB, 72 h; for SI B16-F0: selectivity coefficient, BALB/3T3 versus B16-F0
Method: (§1) In vitro cytotoxicity tests were performed according to the procedure described below. […] The solvent for further dilutions was a culture medium.
(§2) The experiments were repeated at least 3 times.

Hs294T (human melanoma) = test: as above; settings: for IC50: Hs294T human melanoma, SRB, 72 h; for SI Hs294T: selectivity coefficient, BALB/3T3 versus Hs294T
Method: as §1, §2

[1] = tested on: LoVo (drug-sensitive human colon cancer); test: as above; settings: for IC50: LoVo drug-sensitive human colon cancer, SRB, 72 h; for SI LoVo: selectivity coefficient, BALB/3T3 versus LoVo
Method: as §1, §2

[2] = tested on: LoVo/DX (drug-resistant human colon cancer); test: as above; settings: for IC50: LoVo/DX drug-resistant human colon cancer, SRB, 72 h; for RI: drug resistance coefficient, LoVo/DX versus LoVo, 4320 min; for SI LoVo/DX: selectivity coefficient, BALB/3T3 versus LoVo/DX
Method: as §1, §2

[3] = tested on: MCF-7 (human breast cancer); test: as above; settings: for IC50: MCF-7 human breast cancer, SRB, 72 h; for SI MCF-7: selectivity coefficient, BALB/3T3 versus MCF-7
Method: as §1, §2

[4] = tested on: MV-4-11 (human biphenotypic leukaemia); test: In vitro cytotoxicity test, MTT assay, 72 h incubation with compound; settings: for IC50: MV-4-11 human biphenotypic leukaemia, MTT, 72 h; for SI MV-4-11: selectivity coefficient, BALB/3T3 versus MV-4-11
Method: as §1, §2
After 4 hours of incubation at 37° C., 80 μL of lysis buffer was added to each well.

[5] = In vitro cytotoxicity test on normal cells, SRB assay, 72 h incubation with compound; settings: mouse, balb/3t3 cells, normal murine fibroblasts, read-out: IC50 BALB/3T3
Method: Normal murine BALB/3T3 fibroblasts were also used in the tests for determining the selectivity coefficients of the compounds used in the assays.
as §1, §2

SMILES | IC50 (B16-F0 (murine melanoma); Mus musculus, B16F0) | SI B16-F0 (B16-F0 (murine melanoma)) | IC50 (Hs294T (human melanoma); Hs 294T) | SI Hs294T (Hs294T (human melanoma)) | IC50 [1] | SI LoVo [1] | IC50 [2] | RI [2] | SI LoVo/DX [2] | IC50 ([3]; MCF7) | SI MCF-7 [3] | IC50 ([4]; MV4-11) | SI MV-4-11 [4] | CC50 at 72 h [5] | IC50 (B16-F0 (murine melanoma)) | IC50 (Hs294T (human melanoma)) | IC50 [3] | IC50 [4]
CCCCNC(=O)N[C@@H]1C=C[C@]2(O[C@H]([C@@H](CC)C(=O)[C@@H](C)[C@@H](O)[C@H](C)[C@@H]3O[C@@H]([C@@H](CC)C(=O)[O-])CC[C@@H]3C)[C@@H](C)C[C@H]2C)O[C@@]12CC[C@@](C)([C@H]1CC[C@](O)(CC)[C@H](C)O1)O2.[Na+] [(24), butylurea of C20-dehydroxy-C20-aminosalinomycin] | 50 nM | 16.0 | 40 nM | 20.0 | 70 nM | 11.4 | 110 nM | 1.6 | 7.3 | 400 nM | 2.0 | 1 nM | 800.0 | 800 nM | – | – | – | –
CCOC(=O)N[C@@H]1C=C[C@]2(O[C@H]([C@@H](CC)C(=O)[C@@H](C)[C@@H](O)[C@H](C)[C@@H]3O[C@@H]([C@@H](CC)C(=O)O)CC[C@@H]3C)[C@@H](C)C[C@H]2C)O[C@@]12CC[C@@](C)([C@H]1CC[C@](O)(CC)[C@H](C)O1)O2 [(19), C20-dehydroxy-C20-aminosalinomycin N-ethylcarbamate] | 30 nM | 32.3 | 10 nM | 97.0 | 160 nM | 6.1 | 43100 nM | 269.4 | 0.02 | 540 nM | 1.8 | 40 nM | 24.3 | 970 nM | – | – | – | –
CC[C@@H](C(=O)[C@@H](C)[C@@H](O)[C@H](C)[C@@H]1O[C@@H]([C@@H](CC)C(=O)O)CC[C@@H]1C)[C@H]1O[C@]2(C=C[C@@H](NC(=O)CCl)[C@]3(CC[C@@](C)([C@H]4CC[C@](O)(CC)[C@H](C)O4)O3)O2)[C@H](C)C[C@@H]1C [(11), C20-dehydroxy-C20-aminosalinomycin N-chloroacetamide] | 400 nM | 6.5 | 60 nM | 43.2 | 930 nM | 2.8 | 620 nM | 0.7 | 4.2 | 810 nM | 3.2 | 280 nM | 9.2 | 2590 nM | – | – | – | –
CC[C@@H](C(=O)[C@@H](C)[C@@H](O)[C@H](C)[C@@H]1O[C@@H]([C@@H](CC)C(=O)O)CC[C@@H]1C)[C@H]1O[C@]2(C=C[C@@H](NC(=O)COC)[C@]3(CC[C@@](C)([C@H]4CC[C@](O)(CC)[C@H](C)O4)O3)O2)[C@H](C)C[C@@H]1C [(13), C20-dehydroxy-C20-aminosalinomycin N-methoxyacetamide] | 530 nM | 26.4 | 60 nM | 233.5 | 670 nM | 20.9 | 2330 nM | 3.5 | 6.0 | 1310 nM | 10.7 | 270 nM | 51.9 | 14000 nM | – | – | – | –
CC[C@@H](C(=O)[C@@H](C)[C@@H](O)[C@H](C)[C@@H]1O[C@@H]([C@@H](CC)C(=O)O)CC[C@@H]1C)[C@H]1O[C@]2(C=C[C@@H](NC(=O)CCCCl)[C@]3(CC[C@@](C)([C@H]4CC[C@](O)(CC)[C@H](C)O4)O3)O2)[C@H](C)C[C@@H]1C [(12), C20-dehydroxy-C20-aminosalinomycin N-4-chlorobutyramide] | 560 nM | 30.5 | 70 nM | 243.9 | 630 nM | 27.1 | 1550 nM | 2.5 | 11.0 | 900 nM | 19.0 | 200 nM | 85.4 | 17100 nM | – | – | – | –
N.N.[Cl][Pt][Cl] [cisplatin, reference compound] | – | – | – | – | 6970 nM | – | 8000 nM | 1.1 | – | – | – | – | – | – | 3840 nM | 4010 nM | 7170 nM | 3400 nM
CC[C@@H](C(=O)[C@@H](C)[C@@H](O)[C@H](C)[C@@H]1O[C@@H]([C@@H](CC)C(=O)O)CC[C@@H]1C)[C@H]1O[C@]2(C=C[C@@H](N)[C@]3(CC[C@@](C)([C@H]4CC[C@](O)(CC)[C@H](C)O4)O3)O2)[C@H](C)C[C@@H]1C [(3), C20-aminosalinomycin, reference compound] | 9440 nM | 7.0 | 9730 nM | 6.8 | 33100 nM | 2.0 | 20500 nM | 0.6 | 3.2 | 34900 nM | 1.9 | 5920 nM | 11.2 | 66400 nM | – | – | – | –
CC[C@@H](C(=O)[C@@H](C)[C@@H](O)[C@H](C)[C@@H]1O[C@@H]([C@@H](CC)C(=O)O)CC[C@@H]1C)[C@H]1O[C@]2(C=C[C@@H](NC(=O)OCC(C)(C)C)[C@]3(CC[C@@](C)([C@H]4CC[C@](O)(CC)[C@H](C)O4)O3)O2)[C@H](C)C[C@@H]1C [(20), C20-dehydroxy-C20-aminosalinomycin N-neopentylcarbamate] | 640 nM | 5.1 | 280 nM | 11.6 | 820 nM | 4.0 | 640 nM | 0.8 | 5.1 | 2380 nM | 1.4 | 360 nM | 9.0 | 3240 nM | – | – | – | –
CC[C@@H](C(=O)[C@@H](C)[C@@H](O)[C@H](C)[C@@H]1O[C@@H]([C@@H](CC)C(=O)O)CC[C@@H]1C)[C@H]1O[C@]2(C=C[C@@H](NC(=O)c3ccc(CCl)cc3)[C@]3(CC[C@@](C)([C@H]4CC[C@](O)(CC)[C@H](C)O4)O3)O2)[C@H](C)C[C@@H]1C [(16), C20-dehydroxy-C20-aminosalinomycin N-(4-chloromethyl)benzamide] | 480 nM | 5.2 | 30 nM | 83.3 | 290 nM | 8.6 | 630 nM | 2.2 | 4.0 | 580 nM | 4.3 | 30 nM | 83.3 | 2500 nM | – | – | – | –
CCCNC(=O)N[C@@H]1C=C[C@]2(O[C@H]([C@@H](CC)C(=O)[C@@H](C)[C@@H](O)[C@H](C)[C@@H]3O[C@@H]([C@@H](CC)C(=O)[O-])CC[C@@H]3C)[C@@H](C)C[C@H]2C)O[C@@]12CC[C@@](C)([C@H]1CC[C@](O)(CC)[C@H](C)O1)O2.[Na+] [(23), propylurea of C20-dehydroxy-C20-aminosalinomycin] | 70 nM | 22.0 | 10 nM | 154.0 | 60 nM | 25.7 | 150 nM | 2.5 | 10.3 | 370 nM | 4.2 | 1.1 nM | 1400.0 | 1540 nM | – | – | – | –
CC[C@@H](C(=O)[C@@H](C)[C@@H](O)[C@H](C)[C@@H]1O[C@@H]([C@@H](CC)C(=O)O)CC[C@@H]1C)[C@H]1O[C@]2(C=C[C@@H](NC(=O)OC)[C@]3(CC[C@@](C)([C@H]4CC[C@](O)(CC)[C@H](C)O4)O3)O2)[C@H](C)C[C@@H]1C [(18), C20-dehydroxy-C20-aminosalinomycin N-methylcarbamate] | 50 nM | 35.2 | 20 nM | 88.0 | 480 nM | 3.7 | 160 nM | 0.3 | 11.0 | 570 nM | 3.1 | 70 nM | 25.1 | 1760 nM | – | – | – | –
